Test results from patent US5110796A, “Prophylactic and therapeutic agents for cataracts” (priority 1988, dated 1992).
Structures can show the parent of a compound that is named as a salt.

Legend:
X-ray induced cataracts = tested on: X-ray induced cataracts
Protocol: Four-week old SLC Wistar rats are divided into three groups having ten animals in each group; the first group is a normal control group. The second group is an X-ray irradiated control group which is administered intraperitoneally 1 ml/kg of physiological saline solution three times a week after X-ray irradiation. For the third group, 20 mg/kg of glutathione monoisopropyl ester sulfate is administered intraperitoneally three times a week after X-ray irradiation. X-ray irradiation is carried out by irradiating the cephalic portion of conscious rats at 1,000 rad.
After X-ray irradiation, the lens are monitored every two weeks for opacity with a slit lamp. […] When the conditions of lens of the X-ray irradiated control group (the second group) reaches level IV or more (at 28 weeks), the tests are finished. Then the lens are extracted and measured for biochemical parameters [amounts of nonprotein-SH (Ellman's method), amounts of Na^+ /K^+ and Ca^++ (Atomic absorption method)].

mice = conditions: intraperitoneal injection to mice

**Q.** What does the source list for `CC(C)OC(=O)CNC(=O)[C@H](CS)NC(=O)CC[C@H](N)C(=O)O` [glutathione monoisopropyl ester sulfate, isopropylγ-L-glutamyl-L-cysteinylglycinate]?
**A.** share of the group with II grade lens score (seven grades I to VII, clear to opacitas) (X-ray induced cataracts; 20 mg/kg i.p. three times a week after 1,000 rad X-ray irradiation, 28 weeks, in the X-ray irradiated control the V grade is greater than 50%): greater than 50%; inhibiting action of cataracts (X-ray induced cataracts; 20 mg/kg i.p. three times a week after X-ray irradiation, rats): outstanding inhibiting action of cataracts; acute toxicity (LD50) (mice): approximately 5.3 g/kg
